Experimental data as given in article PMC6151500 (Molecules : A Journal of Synthetic Chemistry and Natural …, 2017).
pIC50: −log10 of the molar value.

Biological target: Homo sapiens butyrylcholinesterase (hBuChE) (Homo sapiens, UniProt P06276)
Assay: Inhibition of hBuChE (Ellman assay, 4PL dose-response)

Chain of Homo sapiens butyrylcholinesterase (hBuChE) (P06276 29-602): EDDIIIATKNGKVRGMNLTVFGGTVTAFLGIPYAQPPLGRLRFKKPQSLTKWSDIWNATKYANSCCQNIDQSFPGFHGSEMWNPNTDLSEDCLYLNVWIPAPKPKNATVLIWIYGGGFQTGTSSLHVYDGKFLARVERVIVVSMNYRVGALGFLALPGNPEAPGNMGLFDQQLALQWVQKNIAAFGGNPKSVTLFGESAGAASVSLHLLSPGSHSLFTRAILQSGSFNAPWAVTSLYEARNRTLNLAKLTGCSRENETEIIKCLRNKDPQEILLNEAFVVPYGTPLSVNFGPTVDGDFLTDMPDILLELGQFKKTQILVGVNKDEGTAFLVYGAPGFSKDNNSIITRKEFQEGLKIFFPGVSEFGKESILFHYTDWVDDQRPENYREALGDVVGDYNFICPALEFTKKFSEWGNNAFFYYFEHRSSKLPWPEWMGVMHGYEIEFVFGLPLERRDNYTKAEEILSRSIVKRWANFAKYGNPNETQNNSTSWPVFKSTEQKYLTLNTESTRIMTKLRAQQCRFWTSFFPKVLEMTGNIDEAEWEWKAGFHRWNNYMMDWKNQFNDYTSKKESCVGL

CN(C)c1ccc(C(=C2C=CC(=[N+](C)C)C=C2)c2ccc(N(C)C)cc2)cc1 [CV, tris(4-(dimethylamino)phenyl)methylium chloride]
pIC50: 6.05
